Experimental data from patent publication US7875596B2, “Use of dermatan sulfates and/or desulfated heparins to treat or prevent heparinoid-induced autoimmune responses” (Celsus Biopharmaceuticals, Inc., priority 2004, dated 2011).

How the values were obtained:
[1] = biological target: T1, purified α-thrombin in the presence of purified human HCII (Homo sapiens, UniProt P05546); assay: HCII/anti-IIa activity (plasma-free chromogenic anti-IIa assay with heparin cofactor II); assay type: biochemical
T1 construct: Performed in a plasma-free system with purified α-thrombin; purchased Enzyme Research Laboratories, South Bend Ind; (α-thrombin, Lot No. HT2450PRA)
T1 sequence (P05546 20-499): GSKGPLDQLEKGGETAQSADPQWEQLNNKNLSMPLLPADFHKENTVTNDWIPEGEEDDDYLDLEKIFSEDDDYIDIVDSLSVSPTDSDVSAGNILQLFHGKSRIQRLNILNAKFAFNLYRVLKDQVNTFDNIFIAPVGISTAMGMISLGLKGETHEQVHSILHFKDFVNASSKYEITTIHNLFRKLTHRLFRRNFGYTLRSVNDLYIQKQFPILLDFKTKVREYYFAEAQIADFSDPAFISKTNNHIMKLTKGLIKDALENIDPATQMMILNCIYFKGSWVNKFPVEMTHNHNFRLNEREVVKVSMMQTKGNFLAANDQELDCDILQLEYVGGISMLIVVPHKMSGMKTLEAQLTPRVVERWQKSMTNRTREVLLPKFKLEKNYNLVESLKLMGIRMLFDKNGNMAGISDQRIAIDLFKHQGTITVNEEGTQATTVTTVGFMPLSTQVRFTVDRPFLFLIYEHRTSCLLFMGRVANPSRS
Text: For the purposes of the present invention, the terms “heparin cofactor II (HCII)-dependent anti-IIa activity,” “heparin cofactor II activity” and “HCII activity” refer interchangeably to the thrombin inhibitory potency of a sulfated mucopolysaccharide measured in the presence of purified human heparin cofactor II.
The chemical, physical and physiological properties of the dermatan sulfates, including the LMWDS embodiments, of this invention can be determined by the following methods: • a. Molecular weight. By gel permeation chromatography according to the method of and as defined by van Dedem et al., “Determinations of the Molecular Mass of Low Molecular Mass (LMM) Heparin,” Pharmeuropa (1991) 3:202-225 (herein incorporated by reference), using the 1st International Reference Standard for Low Molecular Weight Heparin (90/868) as the calibrant. Average molecular weights. […] The % sulfur is determined from the weight of barium sulfate. • c. […] Measurements can be performed manually or on an ACL 300 Plus Analyzer (Instrumentation Laboratory, Lexington Mass.) and anti-factor IIa activity calculated based on the USP Heparin Reference Standard K-5 (U.S. Pharmacopeial Convention, Inc., Rockville Md.). • e. […] Quantified by the PF4 ENHANCED® ELISA kit (Cat. No. X-HAT 45) according to the manufacturer's instructions (GTI, Waukesha Wis.).

[2] = Heparin assay (USP heparin potency)
Text: The chemical, physical and physiological properties of the dermatan sulfates, including the LMWDS embodiments, of this invention can be determined by the following methods: • a. Molecular weight. By gel permeation chromatography according to the method of and as defined by van Dedem et al., “Determinations of the Molecular Mass of Low Molecular Mass (LMM) Heparin,” Pharmeuropa (1991) 3:202-225 (herein incorporated by reference), using the 1st International Reference Standard for Low Molecular Weight Heparin (90/868) as the calibrant. Average molecular weights. By viscometric methods as described by Liberti et al., “Physiochemical Studies of Fractionated Bovine Heparin II: Viscosity as a Function of Ionic Strength,” Arch. Biochem. Biophys. […] The % sulfur is determined from the weight of barium sulfate. • c. […] Measurements can be performed manually or on an ACL 300 Plus Analyzer (Instrumentation Laboratory, Lexington Mass.) and anti-factor IIa activity calculated based on the USP Heparin Reference Standard K-5 (U.S. Pharmacopeial Convention, Inc., Rockville Md.). • e. […] Quantified by the PF4 ENHANCED® ELISA kit (Cat. No. X-HAT 45) according to the manufacturer's instructions (GTI, Waukesha Wis.).
The chemical, physical and physiological properties of the O-desulfated heparins of this invention can be determined by the following methods: • a. […]

**Q.** With dermatan sulfate as the substance, how does the HCII/anti-IIa activity [1] read?
**A.** Its HCII/anti-IIa activity is “less than 15 u/mg”.

**Q.** And the heparin assay [2]?
**A.** Its heparin assay is < 8 u/mg.
